The data set is described as follows: an = ratio of the nth substance listed. Conditions: 308.15 K, 100 kPa, Liquid; for speed of sound: Single path-length method; for mass density: Vibrating tube method.

The structures appear in SMILES notation. ± gives the expanded uncertainty stated by the source.

By speed of sound is commonly meant the propagation velocity of pressure waves in the medium. Usually mass density stands for the mass of a sample divided by its volume.

On to `CCO` [ethanol] + O, for which the speed of sound is listed as 1542.9 ± 0.6 m/s (a1 = 0.05), 1559.2 ± 0.6 m/s (a1 = 0.1) and 1590.4 ± 0.6 m/s (a1 = 0.15). The mass density reads like this: (a1 = 0.05) 990.6 ± 10 kg/m3; (a1 = 0.1) 982.8 ± 10 kg/m3; (a1 = 0.15) 971.7 ± 10 kg/m3.
Take `CO` [methanol] + O: the speed of sound is on record as 1533.2 ± 0.5 m/s (a1 = 0.05), 1543.5 ± 0.5 m/s (a1 = 0.1) and 1566.7 ± 0.5 m/s (a1 = 0.15). Further, the mass density runs as follows: (a1 = 0.05) 988.6 ± 10 kg/m3; (a1 = 0.1) 980.6 ± 10 kg/m3; (a1 = 0.15) 971 ± 10 kg/m3.
`CC(C)O` [propan-2-ol] + O: the speed of sound reads like this: (a1 = 0.05) 1551.7 ± 0.6 m/s; (a1 = 0.075) 1566.2 ± 0.6 m/s; (a1 = 0.1) 1569.7 ± 0.6 m/s. Further, the mass density was 993.1 ± 10 kg/m3 (a1 = 0.05), 991.8 ± 10 kg/m3 (a1 = 0.075) and 987.6 ± 10 kg/m3 (a1 = 0.1).
